{"source": "patent US20250270200A1", "about": "“CTPS1 INHIBITORS AND USES THEREOF” (Nimbus Clotho, Inc., priority 2022, published 2025)", "target": "T1, human CTPS1 (Homo sapiens, UniProt P17812)", "T1 sequence (P17812 1-591)": "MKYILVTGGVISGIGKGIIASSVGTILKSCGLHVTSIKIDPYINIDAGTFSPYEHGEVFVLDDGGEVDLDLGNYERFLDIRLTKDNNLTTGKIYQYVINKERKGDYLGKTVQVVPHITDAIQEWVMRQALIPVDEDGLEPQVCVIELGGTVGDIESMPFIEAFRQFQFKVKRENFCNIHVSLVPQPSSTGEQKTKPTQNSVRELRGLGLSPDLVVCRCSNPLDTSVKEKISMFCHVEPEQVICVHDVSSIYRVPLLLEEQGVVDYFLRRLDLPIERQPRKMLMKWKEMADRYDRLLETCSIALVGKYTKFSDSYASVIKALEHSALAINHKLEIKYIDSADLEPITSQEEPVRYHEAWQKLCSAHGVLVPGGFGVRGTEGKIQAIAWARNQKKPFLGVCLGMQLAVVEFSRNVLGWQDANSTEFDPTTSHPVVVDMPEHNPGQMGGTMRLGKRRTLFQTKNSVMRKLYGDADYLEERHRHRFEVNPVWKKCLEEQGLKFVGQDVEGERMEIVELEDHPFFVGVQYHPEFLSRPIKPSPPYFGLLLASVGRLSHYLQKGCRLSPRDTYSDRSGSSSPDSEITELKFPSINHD", "assay": "ADP-Glo assay, human CTPS1 enzyme inhibition", "type": "biochemical", "settings": "read-out: ADP-Glo_WT_hCTPS1—25 nM_IC50 (IC50)", "summary_of_the_method": "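Full-length tagged human CTPS1 (25 nM) pre-incubated 10 min at 25° C with compound, then 10 min with ATP (120 μM) and UTP (160 μM); reaction started with L-glutamine (100 μM) and GTP (60 μM), 1% DMSO, in HEPES pH 7.4, 10 mM Mg2+, 5 mM KCl, 2 mM DTT. Run within linear phase at 25° C; ADP measured by ADP-Glo luminescence.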", "key": {"[1]": {"settings": "wild-type human CTPS1, 25 nM enzyme, ADP-Glo"}}, "note": "Read-outs that look alike come from different tables or passages of the source.", "data": [{"smiles": "CCOc1cncc(-c2cnc(C(=O)N[C@@H](CN3CC[C@@](C)(O)C3)c3cc(NS(=O)(=O)C4CC4)ccn3)s2)n1", "note": "[I-129, N-((S)-1-(4-(cyclopropanesulfonamido)pyridin-2-yl)-2-((R)-3-hydroxy-3-methylpyrrolidin-1-yl)ethyl)-5-(6-ethoxypyrazin-2-yl)thiazole-2-carboxamide]", "values": [{"measurement": "IC50", "setting": "[1]", "result": "50 to 100", "unit": "nM"}]}, {"smiles": "CCOc1cncc(-c2cnc(C(=O)N[C@@H](c3cc(NS(=O)(=O)C4CC4)ccn3)[C@H]3C[C@H]4CC[C@@H]3O4)s2)n1", "note": "[I-84, N-((R)-((1S,2R,4R)-7-oxabicyclo[2.2.1]heptan-2-yl)(4-(cyclopropanesulfonamido)pyridin-2-yl)methyl)-5-(6-ethoxypyrazin-2-yl)thiazole-2-carboxamide]", "values": [{"measurement": "IC50", "setting": "[1]", "result": "≤ 5", "unit": "nM"}]}, {"smiles": "COC[C@@H](NC(=O)c1ccc(-c2cnn3ccc(Cl)cc23)cc1F)c1cc(NS(=O)(=O)C2CC2)ccn1", "note": "[I-285, (S)-4-(5-chloropyrazolo[1,5-a]pyridin-3-yl)-N-(1-(4-(cyclopropanesulfonamido)pyridin-2-yl)-2-methoxyethyl)-2-fluorobenzamide]", "values": [{"measurement": "IC50", "setting": "[1]", "result": "50 to 100", "unit": "nM"}]}, {"smiles": "CCOc1cncc(-c2cnc(C(=O)N[C@]3(c4cc(NS(=O)(=O)C5CC5)ccn4)C[C@@H](O)C3)s2)n1", "note": "[I-88, N-((1r,3r)-1-(4-(cyclopropanesulfonamido)pyridin-2-yl)-3-hydroxycyclobutyl)-5-(6-ethoxypyrazin-2-yl)thiazole-2-carboxamide]", "values": [{"measurement": "IC50", "setting": "[1]", "result": "≤ 5", "unit": "nM"}]}, {"smiles": "CCOc1cncc(-c2ccc(C(=O)N[C@@H](c3cc(NS(=O)(=O)C4CC4)ccn3)[C@@H]3CCCO3)nc2)n1", "note": "[I-69, N-((S)-(4-(cyclopropanesulfonamido)pyridin-2-yl)((S)-tetrahydrofuran-2-yl)methyl)-5-(6-ethoxypyrazin-2-yl)picolinamide]", "values": [{"measurement": "IC50", "setting": "[1]", "result": "25 to 50", "unit": "nM"}]}, {"smiles": "CCOc1cncc(-c2cnc(C(=O)NC3(c4cc(NS(=O)(=O)C5CC5)ccn4)CC3)s2)n1", "note": "[I-179, N-(1-(4-(cyclopropanesulfonamido)pyridin-2-yl)cyclopropyl)-5-(6-ethoxypyrazin-2-yl)thiazole-2-carboxamide]", "values": [{"measurement": "IC50", "setting": "[1]", "result": "5 to 25", "unit": "nM"}]}, {"smiles": "CCOc1cncc(-c2ccc(C(=O)N[C@@H](c3cc(NS(=O)(=O)C4CC4)ccn3)[C@H]3CCCO3)nc2)n1", "note": "[I-70, N-((S)-(4-(cyclopropanesulfonamido)pyridin-2-yl)((R)-tetrahydrofuran-2-yl)methyl)-5-(6-ethoxypyrazin-2-yl)picolinamide]", "values": [{"measurement": "IC50", "setting": "[1]", "result": "25 to 50", "unit": "nM"}]}, {"smiles": "CCOc1cncc(-c2cnc(C(=O)N(C)[C@@H](c3cc(NS(=O)(=O)C4CC4)ccn3)[C@@H]3CCOC3)s2)n1", "note": "[I-66, N-((R)-(4-(cyclopropanesulfonamido)pyridin-2-yl)((S)-tetrahydrofuran-3-yl)methyl)-5-(6-ethoxypyrazin-2-yl)-N-methylthiazole-2-carboxamide]", "values": [{"measurement": "IC50", "setting": "[1]", "result": "25 to 50", "unit": "nM"}]}, {"smiles": "CCOc1cncc(-c2cnc(C(=O)N[C@@H](CN3CCOC[C@@H]3C)c3cc(NS(=O)(=O)C4CC4)ccn3)s2)n1", "note": "(single isomer, unassigned) [I-34]", "values": [{"measurement": "IC50", "setting": "[1]", "result": "5 to 25", "unit": "nM"}]}, {"smiles": "CCOc1cncc(-c2cnc(C(=O)N[C@H](c3cc(NS(=O)(=O)C4CC4)ccn3)[C@@H]3CC(=O)N(C)C3)s2)n1", "note": "[I-119, N-((S)-(4-(cyclopropanesulfonamido)pyridin-2-yl)((R)-1-methyl-5-oxopyrrolidin-3-yl)methyl)-5-(6-ethoxypyrazin-2-yl)thiazole-2-carboxamide]", "values": [{"measurement": "IC50", "setting": "[1]", "result": "25 to 50", "unit": "nM"}]}, {"smiles": "COC[C@@H](NC(=O)c1ncc(-c2cnn3ccc(Cl)cc23)s1)c1nccc(NS(=O)(=O)C2CC2)n1", "note": "(single isomer, unassigned) [II-10]", "values": [{"measurement": "IC50", "setting": "wild-type human CTPS1 25 nM, ATP 120 μM, UTP 160 μM, GTP 60 μM, L-glutamine 100 μM, 25 degrees C.", "result": "25 to 50", "unit": "nM"}]}, {"smiles": "CCOc1cncc(-c2cnc(C(=O)NCc3ccnc(NS(=O)(=O)C4CC4)n3)s2)n1", "note": "[I-178, N-((2-(cyclopropanesulfonamido)pyrimidin-4-yl)methyl)-5-(6-ethoxypyrazin-2-yl)thiazole-2-carboxamide]", "values": [{"measurement": "IC50", "setting": "[1]", "result": "25 to 50", "unit": "nM"}]}, {"smiles": "COC[C@@H](NC(=O)c1ncc(-c2cnn3ccc(Cl)cc23)s1)c1cc(NS(=O)(=O)C2CC2)ccn1", "note": "(single isomer, unassigned) [I-4]", "values": [{"measurement": "IC50", "setting": "[1]", "result": "5 to 25", "unit": "nM"}]}, {"smiles": "CCOc1cncc(-c2cnc(C(=O)N[C@@H](c3cc(NS(=O)(=O)C4CC4)ccn3)[C@H](C)OC)s2)n1", "note": "[I-44, N-((1S,2S)-1-(4-(cyclopropanesulfonamido)pyridin-2-yl)-2-methoxypropyl)-5-(6-ethoxypyrazin-2-yl)thiazole-2-carboxamide]", "values": [{"measurement": "IC50", "setting": "[1]", "result": "5 to 25", "unit": "nM"}]}, {"smiles": "CCOc1cncc(-c2cnc(C(=O)N[C@H](c3cccc(NS(=O)(=O)C(F)F)c3)C(C)(C)O)s2)n1", "note": "[I-291, (R)-N-(1-(3-((difluoromethyl)sulfonamido)phenyl)-2-hydroxy-2-methylpropyl)-5-(6-ethoxypyrazin-2-yl)thiazole-2-carboxamide]", "values": [{"measurement": "IC50", "setting": "[1]", "result": "5 to 25", "unit": "nM"}]}, {"smiles": "CCOc1cncc(-c2cnc(C(=O)N[C@@H](c3cc(NS(=O)(=O)C4CC4)ccn3)[C@H]3CCCN3C)s2)n1", "note": "[I-118, N-((R)-(4-(cyclopropanesulfonamido)pyridin-2-yl)((R)-1-methylpyrrolidin-2-yl)methyl)-5-(6-ethoxypyrazin-2-yl)thiazole-2-carboxamide]", "values": [{"measurement": "IC50", "setting": "[1]", "result": "5 to 25", "unit": "nM"}]}, {"smiles": "CCOc1cncc(-c2cnc(C(=O)N[C@@H](c3cc(NS(=O)(=O)C4CC4)ccn3)[C@H]3CN(C)CCO3)s2)n1", "note": "[I-100, N-((S)-(4-(cyclopropanesulfonamido)pyridin-2-yl)((R)-4-methylmorpholin-2-yl)methyl)-5-(6-ethoxypyrazin-2-yl)thiazole-2-carboxamide]", "values": [{"measurement": "IC50", "setting": "[1]", "result": "5 to 25", "unit": "nM"}]}, {"smiles": "CCOc1cncc(-c2cnc(C(=O)N[C@@H](CCNC3CC3)c3cc(NS(=O)(=O)C4CC4)ccn3)s2)n1", "note": "[I-185, (S)-N-(1-(4-(cyclopropanesulfonamido)pyridin-2-yl)-3-(cyclopropylamino)propyl)-5-(6-ethoxypyrazin-2-yl)thiazole-2-carboxamide]", "values": [{"measurement": "IC50", "setting": "[1]", "result": "50 to 100", "unit": "nM"}]}, {"smiles": "O=C(N[C@H](CN1CCCC1)c1cccc(NS(=O)(=O)C(F)F)c1)c1ncc(-c2cnn3ccc(Cl)cc23)s1", "note": "[I-220, (S)-5-(5-chloropyrazolo[1,5-a]pyridin-3-yl)-N-(1-(3-((difluoromethyl)sulfonamido)phenyl)-2-(pyrrolidin-1-yl)ethyl)thiazole-2-carboxamide]", "values": [{"measurement": "IC50", "setting": "[1]", "result": "25 to 50", "unit": "nM"}]}, {"smiles": "CCOc1cncc(-c2ccc(C(=O)N[C@@H](CN3CCOCC3)c3cc(NS(=O)(=O)C4CC4)ccn3)c(F)c2)n1", "note": "[I-143, (S)-N-(1-(4-(cyclopropanesulfonamido)pyridin-2-yl)-2-morpholinoethyl)-4-(6-ethoxypyrazin-2-yl)-2-fluorobenzamide]", "values": [{"measurement": "IC50", "setting": "[1]", "result": "50 to 100", "unit": "nM"}]}, {"smiles": "O=C(N[C@H](CCN1CCCCC1)c1cc(NS(=O)(=O)C2CC2)ccn1)c1ncc(-c2cnn3ccc(Cl)cc23)s1", "note": "(single isomer, unassigned) [I-10]", "values": [{"measurement": "IC50", "setting": "[1]", "result": "5 to 25", "unit": "nM"}]}, {"smiles": "CCOc1cncc(-c2cnc(C(=O)N[C@@H](c3cc(NS(=O)(=O)C4CC4)ccn3)C(C)(C)OC)s2)n1", "note": "[I-91, (S)-N-(1-(4-(cyclopropanesulfonamido)pyridin-2-yl)-2-methoxy-2-methylpropyl)-5-(6-ethoxypyrazin-2-yl)thiazole-2-carboxamide]", "values": [{"measurement": "IC50", "setting": "[1]", "result": "5 to 25", "unit": "nM"}]}, {"smiles": "CCOc1cncc(-c2cnc(C(=O)N[C@@H](c3cc(NS(=O)(=O)C4CC4)ccn3)[C@H]3CCN(C4CCCC4)C3)s2)n1", "note": "[I-96, N-((R)-((S)-1-cyclopentylpyrrolidin-3-yl)(4-(cyclopropanesulfonamido)pyridin-2-yl)methyl)-5-(6-ethoxypyrazin-2-yl)thiazole-2-carboxamide]", "values": [{"measurement": "IC50", "setting": "[1]", "result": "5 to 25", "unit": "nM"}]}, {"smiles": "CCOc1cncc(-c2cnc(C(=O)N[C@H](CN3CC[C@@](C)(O)C3)c3cccc(NS(=O)(=O)C(F)F)c3)s2)n1", "note": "[I-207, N-((S)-1-(3-((difluoromethyl)sulfonamido)phenyl)-2-((R)-3-hydroxy-3-methylpyrrolidin-1-yl)ethyl)-5-(6-ethoxypyrazin-2-yl)thiazole-2-carboxamide]", "values": [{"measurement": "IC50", "setting": "[1]", "result": "25 to 50", "unit": "nM"}]}, {"smiles": "CCOc1cncc(-c2cnc(C(=O)N[C@@H](c3cccc(NS(=O)(=O)C(F)F)c3)[C@@H]3CCOC3)s2)n1", "note": "[I-189, N-((R)-(3-((difluoromethyl)sulfonamido)phenyl)((S)-tetrahydrofuran-3-yl)methyl)-5-(6-ethoxypyrazin-2-yl)thiazole-2-carboxamide]", "values": [{"measurement": "IC50", "setting": "[1]", "result": "≤ 5", "unit": "nM"}]}, {"smiles": "O=C(N[C@@H](c1cc(NS(=O)(=O)C2CC2)ccn1)[C@H]1CCOC1)c1ncc(-c2cnn3ccc(Cl)cc23)s1", "note": "(single isomer, unassigned) [I-25]", "values": [{"measurement": "IC50", "setting": "[1]", "result": "5 to 25", "unit": "nM"}]}, {"smiles": "CCOc1cncc(-c2cnc(C(=O)N[C@@H](CN3CCCC3)c3cccc(NS(=O)(=O)C(F)F)c3)s2)n1", "note": "(single isomer, unassigned) [I-38]", "values": [{"measurement": "IC50", "setting": "[1]", "result": "5 to 25", "unit": "nM"}]}, {"smiles": "O=C(N[C@]1(c2cc(NS(=O)(=O)C3CC3)ccn2)C[C@@H](O)C1)c1ncc(-c2cnn3ccc(Cl)cc23)s1", "note": "[I-90, 5-(5-chloropyrazolo[1,5-a]pyridin-3-yl)-N-((1r,3r)-1-(4-(cyclopropanesulfonamido)pyridin-2-yl)-3-hydroxycyclobutyl)thiazole-2-carboxamide]", "values": [{"measurement": "IC50", "setting": "[1]", "result": "5 to 25", "unit": "nM"}]}]}
